Reference: PubChem BioAssay (NCI)
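Growth conditions: 96-well plates. Treatment: test compound, 48 hours, 5 concentrations. Analysis: linear interpolation between bracketing concentrations; unreached endpoints set to highest concentration. GI50: concentration for 50% inhibition of growth. TGI: total growth inhibition.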

Columns and labels:
Test in all cases: NCI-60 cell line screen, 48 h
RPMI-8226 leukemia = system: RPMI-8226 leukemia
HCT-15 colon = system: HCT-15 colon
SNB-19 CNS = system: SNB-19 CNS
KM12 colon = system: KM12 colon
SK-MEL-28 melanoma = system: SK-MEL-28 melanoma
IGROV1 ovarian = system: IGROV1 ovarian
SF-539 CNS = system: SF-539 CNS
A549 NSCLC = system: A549 NSCLC
SK-MEL-5 melanoma = system: SK-MEL-5 melanoma
RXF 393 renal = system: RXF 393 renal

SMILES | TGI (RPMI-8226 leukemia) [µM] | TGI (HCT-15 colon) [µM] | TGI (SNB-19 CNS) [µM] | TGI (KM12 colon) [µM] | TGI (SK-MEL-28 melanoma) [µM] | TGI (IGROV1 ovarian) [µM] | TGI (SF-539 CNS) [µM] | TGI (A549 NSCLC) [µM] | TGI (SK-MEL-5 melanoma) [µM] | TGI (RXF 393 renal) [µM] | GI50 (RPMI-8226 leukemia) [µM] | GI50 (HCT-15 colon) [µM] | GI50 (SNB-19 CNS) [µM] | GI50 (KM12 colon) [µM] | GI50 (SK-MEL-28 melanoma) [µM] | GI50 (IGROV1 ovarian) [µM] | GI50 (SF-539 CNS) [µM] | GI50 (A549 NSCLC) [µM] | GI50 (SK-MEL-5 melanoma) [µM] | GI50 (RXF 393 renal) [µM]
COc1ccccc1C(=O)Nc1ccc(Cl)c(C(=O)OC(C)C)c1 | 77.6 | > 100 | > 100 | > 100 | > 94.5 | > 100 | > 100 | > 100 | > 54.8 | > 100 | – | – | – | – | – | – | – | – | – | –
CN1CCN(c2ccc(NC(=O)c3cncnc3Nc3ccc4c(ccn4Cc4cccc(F)c4)c3)cc2)CC1 | 1.79 | 4 | 8.96 | 6.76 | 1.01 | 6.92 | 5.54 | 6.59 | 5.91 | 3.77 | 0.754 | 0.943 | 4.42 | 2.33 | 0.533 | 2.29 | 1.35 | 2.15 | 1.56 | 0.707
COc1ccccc1CNC(=O)/C=C/c1ccc(O)c(O)c1 | > 100 | 86.3 | > 100 | > 100 | > 100 | > 100 | 65.9 | > 100 | > 100 | > 100 | 34.7 | 15.6 | 48.2 | 59.4 | 89 | 22.9 | 22.2 | 64.3 | 56.8 | 54.9
CCCCc1n(Cc2ccc3ccccc3n2)cc[n+]1Cc1ccc2ccccc2c1 | 1.36 | 18.1 | 2.12 | 2.11 | 2.59 | 2.38 | 3.05 | 11 | 1.33 | 3.16 | 0.265 | 5.07 | 0.605 | 0.715 | 0.798 | 0.731 | 0.916 | 1.69 | 0.559 | 1.22
COc1ccc(/C=N/C2=NNC(C)(c3ccccc3O)N2C(Cc2c[nH]c3ccccc23)C(=O)O)cc1 (stereo not given) | 7.65 | 11.8 | 14.6 | 10.2 | 8.41 | 9.5 | 10.3 | 30.5 | 3.09 | 6.26 | 2.14 | 2.81 | 3.76 | 2.6 | 2.67 | 1.72 | 2.75 | 4.44 | 1.66 | 1.27
CCN1Cc2c(/C=C/c3ccccc3)nc3ccc(OC)cc3c2N(c2cccc(Cl)c2)C1 | 4.71 | 3.63 | 5.15 | 3.49 | 3.28 | 3.68 | 3.91 | 3.96 | 3 | 3.69 | 1.65 | 1.74 | 2.13 | 1.81 | 1.78 | 1.4 | 1.98 | 1.99 | 1.59 | 2.07
CCN(CC)CCC(CNc1c(C)cnc2cc(Cl)ccc12)c1ccc(Cl)c(Cl)c1 (stereo not given) | 6.49 | 10.8 | 18 | 17.7 | 3.83 | 12.1 | 3.52 | 22 | 3.26 | 11.4 | 2.15 | 2.23 | 4.79 | 4.34 | 1.97 | 2.26 | 1.77 | 8.21 | 1.82 | 2.86
COC(=O)C1OC(SCCN)C(O)C(O)C1O (stereo not given) | > 100 | > 100 | > 100 | > 100 | > 100 | > 100 | > 100 | > 100 | > 100 | > 100 | – | – | – | – | – | – | – | – | – | –
CC(C(=O)c1ccc(O)cc1)C1(O)C(=O)Nc2c(Cl)cc(Cl)cc21 (stereo not given) | 71.5 | > 100 | > 100 | > 100 | 78.1 | > 100 | > 100 | > 100 | 31.4 | 68.8 | – | – | – | – | – | – | – | – | – | –
CCN1C(=O)N[C@H]2[C@@H]3NC(=O)c4ccc(Cl)n4[C@@H]3C[C@]21O | 2.08 | 15.6 | 9.25 | 33.7 | 3.03 | 6.46 | 2.57 | 17.6 | 0.711 | 2.69 | 0.363 | 1.66 | 0.31 | 1.06 | 0.311 | 0.471 | 0.369 | 1.74 | 0.228 | 0.333
COc1cc(NC(=O)c2cc3ccccc3cc2O)c(OC)cc1Cl | 1.18 | 8.4 | 8.21 | 7.25 | 10.7 | 15.4 | 7.15 | 7.47 | 2.93 | 8.01 | 0.153 | 1.95 | 2.53 | 2.52 | 2.86 | 0.0776 | 2.31 | 2.46 | 1.38 | 2.24
Cn1c(=O)c2[nH]c(CCS)nc2n(C)c1=O | > 100 | > 100 | > 100 | > 100 | > 100 | > 100 | > 100 | > 100 | > 100 | > 100 | – | – | – | – | – | – | – | – | – | –
CCN(CC)CCOc1ccccc1-n1c(C)ccc1-c1ccccc1 | 68.7 | 28.2 | 31.9 | 32.5 | 29.7 | 31.8 | 31 | 32.1 | 25.9 | 20.1 | 22.9 | 12.6 | 15.7 | 17.2 | 15.7 | 14.8 | 16.1 | 16.3 | 12.8 | 5.31
O=C1c2ccccc2-c2c1c1ccc3ccccc3c1n2-c1ccccc1 | > 100 | > 100 | 59.1 | > 100 | > 100 | > 100 | 36.3 | 93.5 | 50.1 | 52.1 | 65.1 | > 100 | 25.7 | 21.3 | > 100 | 29.7 | 18.2 | 36.5 | 16.5 | 18.9
